Values of other authors in US4112071A, “Antibiotic complex” (priority 1977, dated 1978).

Experiments:
[1] = tested on: several animal tumor systems; details: J. Antibiotics, April 1974, 254-259
animal and human cancers = details: Cancer Chemother. Rep., Part 1, 58, 255 (1974)

SMILES: CC(=O)[C@]1(O)Cc2c(O)c3c(c(O)c2[C@@H](O[C@H]2C[C@H](N)[C@H](O)[C@H](C)O2)C1)C(=O)c1c(O)cccc1C3=O [carminomycin I]
- activity against several animal tumor systems [1]: active
- antitumor activity in a variety of animal and human cancers (animal and human cancers): promising antitumor activity
